Assay results published in ChEMBL document CHEMBL1146288, “Thiosialoside clusters using carbosilane dendrimer core scaffolds as a new class of influenza neuraminidase inhibitors” (Bioorg Med Chem Lett, 2007).

Key:
[1] = Inhibition of influenza A virus A/PR/8/34(H1N1)) sialidase
[2] = Inhibition of influenza A virus A/Memphis/1/71(H3N2)) sialidase; design: species or system Influenza A virus (A/Memphis/1/1971(H3N2))

CC(=O)N[C@@H]1[C@@H]([C@H](O)[C@H](O)CO)O[C@](SCCCCCOCCCSCCC[Si](CCCSCCCOCCCCCS[C@@]2(C(=O)O)C[C@@H](O)[C@H](NC(C)=O)[C@@H]([C@H](O)[C@H](O)CO)O2)(CCCSCCCOCCCCCS[C@@]2(C(=O)O)C[C@@H](O)[C@H](NC(C)=O)[C@@H]([C@H](O)[C@H](O)CO)O2)CCC[Si](C)(C)CCC[Si](CCCSCCCOCCCCCS[C@@]2(C(=O)O)C[C@@H](O)[C@H](NC(C)=O)[C@@H]([C@H](O)[C@H](O)CO)O2)(CCCSCCCOCCCCCS[C@@]2(C(=O)O)C[C@@H](O)[C@H](NC(C)=O)[C@@H]([C@H](O)[C@H](O)CO)O2)CCCSCCCOCCCCCS[C@@]2(C(=O)O)C[C@@H](O)[C@H](NC(C)=O)[C@@H]([C@H](O)[C@H](O)CO)O2)(C(=O)O)C[C@H]1O
IC50 [1]: 5 mM | IC50 [2]: 1.25 mM

CC(=O)N[C@@H]1[C@@H]([C@H](O)[C@H](O)CO)O[C@](SCCCCCOCCCSCCC[Si](CCCSCCCOCCCCCS[C@@]2(C(=O)O)C[C@@H](O)[C@H](NC(C)=O)[C@@H]([C@H](O)[C@H](O)CO)O2)(CCCSCCCOCCCCCS[C@@]2(C(=O)O)C[C@@H](O)[C@H](NC(C)=O)[C@@H]([C@H](O)[C@H](O)CO)O2)c2ccccc2)(C(=O)O)C[C@H]1O
IC50 [1]: 5 mM | IC50 [2]: 5 mM

CC(=O)N[C@@H]1[C@@H]([C@H](O)[C@H](O)CO)O[C@](SCCCCCOCCCSCCC[Si](CCCSCCCOCCCCCS[C@@]2(C(=O)O)C[C@@H](O)[C@H](NC(C)=O)[C@@H]([C@H](O)[C@H](O)CO)O2)(CCCSCCCOCCCCCS[C@@]2(C(=O)O)C[C@@H](O)[C@H](NC(C)=O)[C@@H]([C@H](O)[C@H](O)CO)O2)CCCSCCCOCCCCCS[C@@]2(C(=O)O)C[C@@H](O)[C@H](NC(C)=O)[C@@H]([C@H](O)[C@H](O)CO)O2)(C(=O)O)C[C@H]1O
IC50 [1]: 5 mM | IC50 [2]: 5 mM
